Assays:
B16 mouse melanoma cells = experiment: cell viability in the B16 cell-based assay (Viability, B16 IC50); conditions: Mus musculus, B16, B16 cells; concentration causing 50% cell death; values greater than 10 represent a lack of cell death; read-out: Viability, B16 IC50
How it was run: (§1)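 Viability readouts were run alongside the GM3 cell-surface assay in the same B16 and C32 cultures. A figure above 10 indicates no cell death.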

[1] = test system: GM3 expression on the cell surface, C32 human melanoma cells; experiment: cell based phenotypic assay, cell surface GM3 by antibody mediated immunofluorescence, C32 (GM3 C32 IC50); conditions: Homo sapiens, C32 human melanoma cells; 50% inhibition of GM3 expression on the cell surface; read-out: GM3 C32 IC50
How it was run: (§2)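 B16 mouse and C32 human melanoma cells; cell-surface GM3 measured by antibody-mediated immunofluorescence, giving IC50.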

C32 human melanoma cells = experiment: cell viability in the C32 cell-based assay (Viability, C32 IC50); conditions: Homo sapiens, C32, C32 cells; concentration causing 50% cell death; values greater than 10 represent a lack of cell death; read-out: Viability, C32 IC50
How it was run: as §1

[2] = test system: GM3 expression on the cell surface, B16 mouse melanoma cells; experiment: cell based phenotypic assay, cell surface GM3 by antibody mediated immunofluorescence, B16 (GM3 B16 IC50); conditions: Mus musculus, B16 mouse melanoma cells; 50% inhibition of GM3 expression on the cell surface; read-out: GM3 B16 IC50
How it was run: as §2

[3] = target: T1, glucosylceramide synthase (Homo sapiens, UniProt Q16739); experiment: microsomal assay measuring conversion of ceramide to glucosylceramide by HPLC (GCS IC50); type: biochemical; conditions: concentration causing 50% inhibition of glucosylceramide synthase activity
T1 construct: Microsomes were isolated from A375 human melanoma cells; endogenous in cells; host or cells: A375 human melanoma cells (microsomal fraction, 100,000 g pellet)
T1 sequence (Q16739 1-394): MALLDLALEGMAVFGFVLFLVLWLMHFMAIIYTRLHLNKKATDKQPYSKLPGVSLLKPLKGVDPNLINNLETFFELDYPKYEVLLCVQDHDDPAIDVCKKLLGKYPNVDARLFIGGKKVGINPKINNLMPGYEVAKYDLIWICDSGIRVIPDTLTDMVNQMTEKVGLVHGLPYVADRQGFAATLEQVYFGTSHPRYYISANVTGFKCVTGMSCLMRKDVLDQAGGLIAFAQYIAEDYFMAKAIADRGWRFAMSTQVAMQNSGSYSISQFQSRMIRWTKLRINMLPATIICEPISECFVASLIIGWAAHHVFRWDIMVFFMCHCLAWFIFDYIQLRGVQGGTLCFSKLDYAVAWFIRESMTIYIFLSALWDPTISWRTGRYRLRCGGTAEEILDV
How it was run: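 IC50 is the compound concentration halving glucosylceramide synthase activity. Activity was measured in microsomes, with HPLC quantifying glucosylceramide formed from ceramide.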

| Compound | IC50 (B16 mouse melanoma cells) [nM] | IC50 [1] [nM] | IC50 (C32 human melanoma cells) [nM] | IC50 [2] [nM] | IC50 [3] [nM] |
| --- | --- | --- | --- | --- | --- |
| COCCOc1ccc(-c2ccnc(N3CCC(C(=O)NC4(C)CCN5CCC4CC5)CC3)n2)cc1 (stereo not drawn) [Example 66, 1-(4-(4-(2-Methoxyethoxy)phenyl)pyrimidin-2-yl)-N-(4-methyl-1-azabicyclo[3.2.2]nonan-4-yl)piperidine-4-carboxamide] | 8200 | 0.329 | 215 | 69.3 | 3.17 |
| COCCCOc1ccc(-c2ccnc(N3CCC(C(=O)NC4(C)CCN5CCC4CC5)CC3)n2)cc1 (stereo not drawn) [Example 67, 1-(4-(4-(3-Methoxypropoxy)phenyl)pyrimidin-2-yl)-N-(4-methyl-1-azabicyclo[3.2.2]nonan-4-yl)piperidine-4-carboxamide] | 4950 | 0.114 | 1000 | 7.24 | 1.88 |
| COCCOc1ccc(-c2cccc(N3CCC(C(=O)NC4(C)CCN5CCC4CC5)CC3)c2)cc1 (stereo not drawn) [Example 68, 1-(4′-(2-Methoxyethoxy)-[1,1′-biphenyl]-3-yl)-N-(4-methyl-1-azabicyclo[3.2.2]nonan-4-yl)piperidine-4-carboxamide] | 7120 | 3.53 | 3160 | 132 | 21.3 |
| COCCOCc1ccc(-c2cccc(N3CCC(C(=O)NC4(C)CCN5CCC4CC5)CC3)c2)cc1 (stereo not drawn) [Example 69, 1-(4′-((2-Methoxyethoxy)methyl)-[1,1′-biphenyl]-3-yl)-N-(4-methyl-1-azabicyclo[3.2.2]nonan-4-yl)piperidine-4-carboxamide] | 4640 | 4.64 | 1000 | 303 | 36.2 |
| COCc1ccc(-c2ccnc(N3CCC(C(=O)NC4(C)CCN5CCC4CC5)CC3)n2)cc1 (stereo not drawn) [Example 70, 1-(4-(4-(Methoxymethyl)phenyl)pyrimidin-2-yl)-N-(4-methyl-1-azabicyclo[3.2.2]nonan-4-yl)piperidine-4-carboxamide] | 1000 | 0.0905 | 1000 | 15.6 | 3.96 |
| CC1(NC(=O)C2CCN(c3nccc(-c4ccc(OCCF)cc4)n3)CC2)CCN2CCC1CC2 (stereo not drawn) [Example 71, 1-(4-(4-(2-Fluoroethoxy)phenyl)pyrimidin-2-yl)-N-(4-methyl-1-azabicyclo[3.2.2]nonan-4-yl)piperidine-4-carboxamide] | 2150 | 0.126 | 10 | 4.29 | 2.48 |
| COCCCOc1ccc(-c2ccnc(N3CCC(C(=O)NC4CN5CCC4CC5)CC3)n2)cc1 (stereo not drawn) [Example 72, 1-(4-(4-(3-Methoxypropoxy)phenyl)pyrimidin-2-yl)-N-(quinuclidin-3-yl)piperidine-4-carboxamide] | 8630 | 0.26 | 464 | 79.5 | 1.16 |
| COCc1ccc(-c2ccnc(N3CCC(C(=O)NC4(C)CN5CCC4CC5)CC3)n2)cc1 (stereo not drawn) [Example 73, 1-(4-(4-(Methoxymethyl)phenyl)pyrimidin-2-yl)-N-(3-methylquinuclidin-3-yl)piperidine-4-carboxamide] | 4640 | 0.25 | 631 | 47.4 | 3.46 |
| COCCOCc1ccc(-c2ccnc(N3CCC(C(=O)NC4(C)CCN5CCC4CC5)CC3)n2)cc1 (stereo not drawn) [Example 74, 1-(4-(4-((2-Methoxyethoxy)methyl)phenyl)pyrimidin-2-yl)-N-(4-methyl-1-azabicyclo[3.2.2]nonan-4-yl)piperidine-4-carboxamide] | ≥ 10000 | 0.71 | 215 | 32.5 | 12.8 |
| COCc1ccc(-c2ccnc(N3CCC(F)(C(=O)NC4(C)CCN5CCC4CC5)CC3)n2)cc1 (stereo not drawn) [Example 75, 4-Fluoro-1-(4-(4-(methoxymethyl)phenyl)pyrimidin-2-yl)-N-(4-methyl-1-azabicyclo[3.2.2]nonan-4-yl)piperidine-4-carboxamide] | 5270 | 0.383 | 316 | 48.9 | 2.83 |
| COCCCOc1ccc(-c2ccnc(N3CCC(F)(C(=O)NC4(C)CN5CCC4CC5)CC3)n2)cc1 (stereo not drawn) [Example 76, 4-Fluoro-1-(4-(4-(3-methoxypropoxy)phenyl)pyrimidin-2-yl)-N-(3-methylquinuclidin-3-yl)piperidine-4-carboxamide] | 3870 | 0.141 | 1000 | 58.7 | 1.34 |
| COCCOCc1ccc(-c2nc(N3CCC(F)(C(=O)NC4(C)CCN5CCC4CC5)CC3)ncc2F)cc1 (stereo not drawn) [Example 77, 4-Fluoro-1-(5-fluoro-4-(4-((2-methoxyethoxy)methyl)phenyl)pyrimidin-2-yl)-N-(4-methyl-1-azabicyclo[3.2.2]nonan-4-yl)piperidine-4-carboxamide] | 3760 | 0.316 | 316 | 86.3 | 1.67 |
| COCc1ccc(-c2ccnc(N3CCC(F)(C(=O)NC4(C)CN5CCC4CC5)CC3)n2)cc1 (stereo not drawn) [Example 80, 4-Fluoro-1-(4-(4-(methoxymethyl)phenyl)pyrimidin-2-yl)-N-(3-methylquinuclidin-3-yl)piperidine-4-carboxamide] | ≥ 10000 | 0.525 | 215 | 68.5 | 4 |
| COCc1ccc(-c2ccnc(N3CCC(F)(C(=O)N[C@]4(C)CN5CCC4CC5)CC3)n2)cc1 [Example 81, (S)-4-Fluoro-1-(4-(4-(methoxymethyl)phenyl)pyrimidin-2-yl)-N-(3-methylquinuclidin-3-yl)piperidine-4-carboxamide] | ≥ 10000 | 0.222 | 316 | 48.1 | 2.3 |
| COCCCOc1ccc(-c2ccnc(N3CCC(F)(C(=O)NC4(C)CCN5CCC4CC5)CC3)n2)cc1 (stereo not drawn) [Example 82, 4-Fluoro-1-(4-(4-(3-methoxypropoxy)phenyl)pyrimidin-2-yl)-N-(4-methyl-1-azabicyclo[3.2.2]nonan-4-yl)piperidine-4-carboxamide] | 2790 | 0.128 | 1000 | 42.1 | 1.26 |
| COCCOCc1ccc(-c2ccnc(N3CCC(F)(C(=O)NC4(C)CN5CCC4CC5)CC3)n2)cc1 (stereo not drawn) [Example 83, 4-Fluoro-1-(4-(4-((2-methoxyethoxy)methyl)phenyl)pyrimidin-2-yl)-N-(3-methylquinuclidin-3-yl)piperidine-4-carboxamide] | ≥ 10000 | 1.13 | 1000 | 119 | 13.4 |
| COCCOCc1ccc(-c2ccnc(N3CCC(F)(C(=O)N[C@]4(C)CN5CCC4CC5)CC3)n2)cc1 [Example 84, (S)-4-Fluoro-1-(4-(4-((2-methoxyethoxy)methyl)phenyl)pyrimidin-2-yl)-N-(3-methylquinuclidin-3-yl)piperidine-4-carboxamide] | ≥ 10000 | 0.621 | 1000 | 90.3 | 5.35 |
| COCCOc1ccc(-c2ccnc(N3CCC(F)(C(=O)NC4(C)CN5CCC4CC5)CC3)n2)cc1 (stereo not drawn) [Example 85, 4-Fluoro-1-(4-(4-(2-methoxyethoxy)phenyl)pyrimidin-2-yl)-N-(3-methylquinuclidin-3-yl)piperidine-4-carboxamide] | ≥ 10000 | 0.389 | 316 | 79.9 | 10.5 |
| COCCOc1ccc(-c2ccnc(N3CCC(F)(C(=O)N[C@]4(C)CN5CCC4CC5)CC3)n2)cc1 [Example 86, (S)-4-Fluoro-1-(4-(4-(2-methoxyethoxy)phenyl)pyrimidin-2-yl)-N-(3-methylquinuclidin-3-yl)piperidine-4-carboxamide] | ≥ 10000 | 0.241 | 1000 | 48 | 3.46 |
| O=C(NC1CN2CCC1CC2)C1(F)CCN(c2nccc(-c3ccc(OCCF)cc3)n2)CC1 (stereo not drawn) [Example 87, 4-Fluoro-1-(4-(4-(2-fluoroethoxy)phenyl)pyrimidin-2-yl)-N-(quinuclidin-3-yl)piperidine-4-carboxamide] | 8910 | 0.177 | 215 | 64.3 | 1.91 |
| O=C(N[C@@H]1CN2CCC1CC2)C1(F)CCN(c2nccc(-c3ccc(OCCF)cc3)n2)CC1 [Example 88, (S)-4-Fluoro-1-(4-(4-(2-fluoroethoxy)phenyl)pyrimidin-2-yl)-N-(quinuclidin-3-yl)piperidine-4-carboxamide] | ≥ 10000 | 0.252 | 1000 | 56.8 | 1.68 |
